Each structure is given as a SMILES string.

In test [1] the test system is p21. In words: p21 mRNA in HT-29 tumour xenografts, RT-PCR. The test is classed as in vivo, CD-1 female nude mice. Particulars: HT-29 xenograft, versus vehicle. How it is done:
The ability of compound 3 to modulate expression of p21 in vivo was determined using the HT-29 colon tumour xenograft model as described in Example 26. The expression of p21 mRNA was analyzed by real-time polymerase chain reaction analysis using the comparative CT method as described in Example 30.

For test [2], the system named is intracellular zinc ions in HT-29 cells. In words: Chelation of intracellular zinc in HT-29 cells, Zinquin fluorescence. The test is classed as cell-based, human. The conditions noted are these: HT-29 with or without pre-loading with 35 μM ZnCl2, 30 min. How it is done:
To determine the chelation property of compound 3 with intracellular zinc ions, HT-29 cells, with or without pre-loaded with 35 μM ZnCl2 were treated with compound 3, a known zinc chelator TPEN or vehicle control (DMSO), and intracellular free zinc was determined by measuring Zinquin fluorescence as described in the preceding Example (FIG. 37). HT-29 cells (4×10^5 cells/group) were pre-treated with 35 μM ZnCl2 for 20 min, followed by addition of indicated concentrations of compound 3 or TPEN and 10 μM Zinquin for 30 min at 37° C., and the fluorescence count was measured (FIG. 37A). For measurement of chelation of endogenous zinc ions in HT-29 cells, HT-29 cells (1.5×10^6 cells/group) were treated with indicated concentrations of compound 3 and 10 μM Zinquin for 30 min at 37° C., and the fluorescence count was measured (FIG. 37B).

In test [3] the test system is MTF-1. Briefly: MTF-1 binding to Cyclin D1 promoter, ChIP, HT-29. Particulars: HT-29, 16 hr, versus basal level. The test is classed as cell-based, human. How it is done: To examine decreased MTF-1 binding to the promoter region of the MTF-1-targeted gene, cell-cycle regulatory gene Cyclin D1, HT-29 cells were treated with compound 3 for 16 hr and MTF-1 binding to Cyclin D1 promoter was assessed by chromatin immuno-precipitation assay (ChIP) (Active Motif, Carlsbad, Calif.). At the end of 16 hr treatment with compound 3, the cells were fixed with 1% formaldehyde to cross-link transcriptions factors and their target chromatin. Chromatin complexes were sheared and MTF-1-bound chromatin was pulled down by using antibody to MTF-1 (Santacruz Biotechnology Inc.). Cross-linking was reversed and the MTF-1-associated DNA was amplified by polymerase chain reaction using the primers encompassing −231 to −92 region of Cyclin D1 promoter. The 5′ primer (5′-CGGACTACAGGGGCAA-3′) [SEQ ID NO:1] and the 3′ primer (5′-GCTCCAGGACTTTGCA-3′) [SEQ ID NO:2] were synthesized at Invitrogen.

As for `Cc1[nH]c2ccccc2c1-c1nc2c3cccnc3c3ncccc3c2[nH]1` [Compound 3], the “p21 expression in tumour xenografts” value in test [1] was “induced the expression of p21”. For the same compound, the “intracellular free zinc (Zinquin fluorescence)” value in test [2] is “Dose-dependent decrease in both pre-loaded zinc and endogenous zinc levels”. Also, the “MTF-1 binding to Cyclin D1 promoter” value in test [3] was “Decreased MTF-1 binding to Cyclin D1 promoter”.

Source of the values: US8148392B2, “2-indolyl imidazo [4,5-d] phenanthroline derivatives and their use in the treatment of cancer” (Lorus Therapeutics Inc., priority 2005, dated 2012).
